Measured values from patent publication US8324272B2 (XenoPort, Inc., priority 2006, dated 2012).
Values joined by “and” are separate entries in the source; they are usually repeats but may differ in a detail not shown here. Equal entries are not always repeated.

Columns and labels:
[1] = Hygroscopicity of crystalline hydrochloride (9) crystallized from various solvents; format: physicochemical
Experimental: Crystallization of (1R,2R)-1-methyl-2-(2-methylpropanoyloxy)propyl (2S)-2-amino-3-(3,4-dihydroxyphenyl)propanoate hydrochloride (9) was crystallized using the solvents listed in Table 1 on an 80 mg scale.

[2] = oral administration; cited from earlier work

## CC(C)C(=O)O[C@H](C)[C@@H](C)OC(=O)[C@@H](N)Cc1ccc(O)c(O)c1.Cl [Compound 9, (1R,2R)-1-Methyl-2-(2-methylpropanoyloxy)propyl (2S)-2-Amino-3-(3,4-dihydroxyphenyl)propanoate Hydrochloride]
[1]; crystallized from acetonitrile
  Hygroscopicity: None
[1]; crystallized from isopropanol-ethyl acetate
  Hygroscopicity: None
[1]; crystallized from isopropanol-methyl tert-butyl ether
  Hygroscopicity: None
[1]; crystallized from tetrahydrofuran-diisopropyl ether
  Hygroscopicity: None
[1]; crystallized from tetrahydrofuran-hexane
  Hygroscopicity: None
[1]; crystallized from tetrahydrofuran-methyl tert-butyl ether
  Hygroscopicity: None
[1]; crystallized from water-acetonitrile
  Hygroscopicity: None
[1]; crystallized from water-methyl tert-butyl ether
  Hygroscopicity: None
other
  melting point: 164.7 to 166.2 °C and 164.9 to 166.4 °C

## CS(=O)(=O)O.C[C@@H](OC(=O)c1ccccc1)[C@@H](C)OC(=O)[C@@H](N)Cc1ccc(O)c(O)c1 [Compound 11, (1R,2R)-1-Methyl-2-phenylcarbonyloxypropyl (2S)-2-Amino-3-(3,4-dihydroxyphenyl)propanoate Mesylate]
other
  melting point: 94.4 °C (dec.)

## CC(C)C(=O)O[C@H](C)[C@@H](C)OC(=O)[C@@H](N)Cc1ccc(O)c(O)c1.CS(=O)(=O)O
other
  melting point: 181.2 to 186 °C

## CC(C)(C)C(=O)Oc1ccc(C[C@H](N)C(=O)O)cc1O [NB-355]
[2]
  duration of circulating levodopa: prolonged
  plasma concentrations of levodopa: low
